The results in this text go back to patent publication US8609403B2, “Polynucleotide derived from novel hepatitis C virus strain and use thereof” (Tokyo Metropolitan Institute of Medical Science, priority 2009, dated 2013).

This assay has as its system HCV-RMT strain. Nature of the assay: Evaluation of anti-HCV agents in Huh7 cells maintaining the RMT recombinant virus (triple mutation), HCV amount by real-time PCR. Format: cell-based, hepatitis C virus. Conditions: Huh7 cells 10 days after introduction of RMT-tri genome; agent added 16 hours after plating, total RNA purified 48 hours later; FIG. 8. As to the method:
E1202G or the 3 acclimation mutations (E1202G, E1056V and A2199T) was/were introduced to pRMTx, and the obtained vectors were designated pRMTx-E1202G and pRMTx-tri, respectively. From pRMTx, pRMTx-E1202G and pRMTx-tri, viral genomic RNAs were prepared (RMT, RMT-E1202G and RMT-tri, respectively), and 30 μg each of the prepared genomic RNAs were introduced to Huh7 cells by electroporation. The cells were plated on a culture dish and subcultured 3 to 4 times per week, during which the cell were sampled. From the sampled cells, total RNA was purified by the AGPC method, and the copy number of the HCV genome per 1 μg of the total RNA was quantified according to a conventional method (Takeuchi et al., Gastroenterology, 1999) by reverse transcription real-time PCR using QuantiTect Multiplex PCR kit (manufactured by Qiagen). Daily changes in the copy number of the HCV genome in the cells to which RMT-RNA, RMT-E1202G-RNA and RMT-tri-RNA were respectively introduced are shown in FIG. 7.
Further, 10 days after the introduction of the genome, the cells in the state where the HCV genome was maintained were plated on a 96-well plate, and an agent was added thereto 16 hours later, followed by purification of total RNA 48 hours later from each well using ABI prizm 6100 and a purification kit (manufactured by Applied Biosystems). The HCV amount in the RNA, which was obtained by the above real-time PCR, and the total RNA amount quantified using an absorption spectrophotometer are shown in FIG. 8. As anti-HCV agents, an HCV polymerase inhibitor (MK0608), HCV protease inhibitor (BILN2061), IFN-α and cyclophilin inhibitor (cyclosporin A) were used.
(Real-time PCR tracks product formation cycle by cycle.)
In the case of `COc1ccc2c(O[C@@H]3C[C@H]4C(=O)N[C@]5(C(=O)O)C[C@H]5/C=C\CCCCC[C@H](NC(=O)OC5CCCC5)C(=O)N4C3)cc(-c3csc(NC(C)C)n3)nc2c1` [BILN2061], the “growth inhibition capacities against HCV” value was “almost the same as those described in documents”.

Take `C[C@@]1(O)[C@H](O)[C@@H](CO)O[C@H]1n1ccc2c(N)ncnc21` [MK0608]: the “growth inhibition capacities against HCV” value is “almost the same as those described in documents”.

On to IFN-α, for which the “growth inhibition capacities against HCV” value is listed as “almost the same as those described in documents”.
